Data as given in patent publication US7786054B2, “Biocide for well stimulation and treatment fluids” (Kemira Chemicals, Inc., priority 2006, dated 2010).
“Also recorded” adds a separate entry of the source.

Assays:
[1] = system: sulfate reducing bacteria (SRB); experiment: Biocidal effectiveness on sulfate reducing bacteria in spiked frac pond water, serial dilution counts over 180 days with challenges; format: cell-based; settings: for control of SRB in frac pond water (summary in words): up to 180 days contact time, challenges at 14, 28 and 129 days
Protocol: (§1) In this example, the biocidal effectiveness on sulfate reducing bacteria (SRB) and acid producing bacteria (AB) for biocide formulations containing CB Thione and WB Thione to Glut and THPS was examined.
(§2) A one gallon sample was separated from a five gallon sample of frac pond water for these studies. The frac pond water sample included SRB and AB. Ten mL of a 10^9 cfu/mL inoculum of SRB grown in anaerobic API broth containing an O2 scavenger and 10 mL of a 10^9 cfu/mL inoculum of AB grown in anaerobic phenol red (anPR) broth containing an O2 scavenger were added to the one gallon frac pond water sample, mixed well and allowed to incubate for a period of time sufficient to achieve a desired number of SRB and AB. All broth media for inoculum and serial dilution counts in this study was made at 4% salinity to match the salinity of the original frac pond water measured by total dissolved solids testing. To increase nutrient value and to emulate on-site friction reducing additives, a 30 weight % acrylic acid, 70% acrylamide copolymer was added to the inoculated gallon of frac pond water sample at 300 ppm and then referred to as the spiked frac pond water sample. The spiked sample was then divided into 99.0 g aliquots for testing the effect of various biocides at various concentrations on the SRB and AB over a 180 day contact time. One spiked aliquot would serve as the control sample to which no biocide would be added. Challenges were made to all aliquots using 0.5 mL of 10^8 SRB and 0.5 mL, of 10^8 AB at 14, 28, and 129 days contact time.
(§3) The biocides included a 20% water based Thione (WB Thione), a 24% caustic based Thione (CB Thione), a 25% Glut, and a 35% THPS. Stock biocide solutions of various concentrations were made from these biocides as described below.
(§4) The WB Thione stock solutions were prepared by adding 3.0 g of the biocide to 17.0 g of sterile distilled water to form an intermediate solution, followed by combining each intermediate solution with water in the accounts shown in Table 1 below to make the descending concentrations as shown in Table 1.
as §4, with “The CB” for “The WB”, “the amounts” for “the accounts”, “Table 2” for “Table 1”, “Table 2.” for “Table 1.”
(§5) The Glut stock solutions were prepared by adding 1.0 g biocide to 19.0 g of sterile distilled water to form an intermediate solution, followed by combining each intermediate solution with water in the amounts shown in Table 3 below to make the descending concentrations as shown in Table 3.
(§6) The THPS stock solutions were prepared by adding 1.0 g of the biocide to 19.0 g of sterile distilled water to form an intermediate solution, followed by combining each intermediate solution with water in the amounts shown in Table 4 below to make the descending concentrations as shown in Table 4.
(§7) Next, 1 g of each biocide stock solution was added to the appropriately labeled 99.0 g aliquot. Also, 1.0 g of sterile water was added to the control aliquot. The concentrations of the biocides present in each aliquot are provided below in Table 5.
(§8) The aliquots were then incubated at room temperature in the dark for the entire study, i.e., 6 months. […] Using sterile syringes, this testing was performed by serial diluting the aliquots into sealed 9.0 mL anaerobic API broth and anaerobic PR broth bottles, both media containing an O2 scavenger, in the appropriate labeled set of SRB bottles (6 for each aliquot) mid AB bottles (6 for each aliquot) until a color change occurred, indicating the log quantity of organisms present in each aliquot.

[2] = system: acid producing bacteria (AB); experiment: Biocidal effectiveness on acid producing bacteria in spiked frac pond water, serial dilution counts over 180 days with challenges; format: cell-based; settings: for control of AB in frac pond water (summary in words): up to 180 days contact time, challenges at 14, 28 and 129 days
Protocol: as §1, §2, §3, §4
as §4, with “The CB” for “The WB”, “the amounts” for “the accounts”, “Table 2” for “Table 1”, “Table 2.” for “Table 1.”
as §5, §6, §7, §8

[3] = Effect of biocide on the oxygen scavenger (oxygen reduction potential); format: physicochemical; settings: 500 ppm biocide; 120 ppm SMBS; pH 6.4; FIG. 5
Protocol: In the following examples, an in-house constructed Inversion Loop was modified with a Grace M3500 viscometer for periodically measuring fluid viscosity as a function of time. The ORP apparatus included a HACH sensION pH meter with a combination ORP electrode. In Example 7, a friction loop apparatus was employed
To a beaker containing 500 milliliters of deionized water, a 120 ppm dose of sodium metabisulfite (SMBS) was added and the pH and oxygen reduction potential (ORP) were recorded. Once stabilized, phosphate buffer was added to increase the pH to 6.4 and the ORP recorded. Finally, the particular biocide tested was added at a concentration of 500 ppm. The ORP was recorded initially and after a period of 10 minutes.

[4] = 500 ppm as is (Glut, THPS), 7 Days
[5] = 500 ppm as is (Glut, THPS), 14 Days
[6] = 500 ppm as is (Glut, THPS), 21 Days
[7] = 500 ppm as is (Glut, THPS), 28 Days
[8] = 500 ppm as is (Glut, THPS), 35 Days
[9] = 500 ppm as is (Glut, THPS), 42 Days
[10] = 500 ppm as is (Glut, THPS), 58 Days
[11] = 500 ppm as is (Glut, THPS), 90 Days

O=CCCCC=O [Glut, glutaraldehyde]
Log 10 Anaerobic Sulfate Reducing Bacteria/mL ([1]; 50 ppm as is, 7 Days): 0 Log 10 Bacteria/mL
Log 10 Anaerobic Sulfate Reducing Bacteria/mL ([1]; 50 ppm as is, 14 Days): 0 Log 10 Bacteria/mL
Log 10 Anaerobic Sulfate Reducing Bacteria/mL ([1]; 50 ppm as is, 21 Days): 0 Log 10 Bacteria/mL
Log 10 Anaerobic Sulfate Reducing Bacteria/mL ([1]; 50 ppm as is, 28 Days): 0 Log 10 Bacteria/mL
Log 10 Anaerobic Sulfate Reducing Bacteria/mL ([1]; 50 ppm as is, 35 Days): ≧3 Log 10 Bacteria/mL
Log 10 Anaerobic Sulfate Reducing Bacteria/mL ([1]; 50 ppm as is, 42 Days): ≧6 Log 10 Bacteria/mL
Log 10 Anaerobic Sulfate Reducing Bacteria/mL ([1]; 50 ppm as is, 58 Days): ≧6 Log 10 Bacteria/mL
Log 10 Anaerobic Sulfate Reducing Bacteria/mL ([1]; 50 ppm as is, 90 Days): ≧5 Log 10 Bacteria/mL
Log 10 Anaerobic Sulfate Reducing Bacteria/mL ([1]; 100 ppm as is, 7 Days): 0 Log 10 Bacteria/mL
Log 10 Anaerobic Sulfate Reducing Bacteria/mL ([1]; 100 ppm as is, 14 Days): 0 Log 10 Bacteria/mL
Log 10 Anaerobic Sulfate Reducing Bacteria/mL ([1]; 100 ppm as is, 21 Days): 0 Log 10 Bacteria/mL
Log 10 Anaerobic Sulfate Reducing Bacteria/mL ([1]; 100 ppm as is, 28 Days): 0 Log 10 Bacteria/mL
Log 10 Anaerobic Sulfate Reducing Bacteria/mL ([1]; 100 ppm as is, 35 Days): ≧3 Log 10 Bacteria/mL
Log 10 Anaerobic Sulfate Reducing Bacteria/mL ([1]; 100 ppm as is, 42 Days): ≧6 Log 10 Bacteria/mL
Log 10 Anaerobic Sulfate Reducing Bacteria/mL ([1]; 100 ppm as is, 58 Days): ≧5 Log 10 Bacteria/mL
Log 10 Anaerobic Sulfate Reducing Bacteria/mL ([1]; 100 ppm as is, 90 Days): ≧5 Log 10 Bacteria/mL
Log 10 Anaerobic Sulfate Reducing Bacteria/mL ([1]; 200 ppm as is, 7 Days): 0 Log 10 Bacteria/mL
Log 10 Anaerobic Sulfate Reducing Bacteria/mL ([1]; 200 ppm as is, 14 Days): 0 Log 10 Bacteria/mL
Log 10 Anaerobic Sulfate Reducing Bacteria/mL ([1]; 200 ppm as is, 21 Days): 0 Log 10 Bacteria/mL
Log 10 Anaerobic Sulfate Reducing Bacteria/mL ([1]; 200 ppm as is, 28 Days): 0 Log 10 Bacteria/mL
Log 10 Anaerobic Sulfate Reducing Bacteria/mL ([1]; 200 ppm as is, 35 Days): ≧3 Log 10 Bacteria/mL
Log 10 Anaerobic Sulfate Reducing Bacteria/mL ([1]; 200 ppm as is, 42 Days): ≧6 Log 10 Bacteria/mL
Log 10 Anaerobic Sulfate Reducing Bacteria/mL ([1]; 200 ppm as is, 58 Days): ≧6 Log 10 Bacteria/mL
Log 10 Anaerobic Sulfate Reducing Bacteria/mL ([1]; 200 ppm as is, 90 Days): ≧6 Log 10 Bacteria/mL
Log 10 Anaerobic Sulfate Reducing Bacteria/mL [1, 4]: 0 Log 10 Bacteria/mL
Log 10 Anaerobic Sulfate Reducing Bacteria/mL [1, 5]: 0 Log 10 Bacteria/mL
Log 10 Anaerobic Sulfate Reducing Bacteria/mL [1, 6]: 0 Log 10 Bacteria/mL
Log 10 Anaerobic Sulfate Reducing Bacteria/mL [1, 7]: 0 Log 10 Bacteria/mL
Log 10 Anaerobic Sulfate Reducing Bacteria/mL [1, 8]: ≧3 Log 10 Bacteria/mL
Log 10 Anaerobic Sulfate Reducing Bacteria/mL [1, 9]: 5 Log 10 Bacteria/mL
Log 10 Anaerobic Sulfate Reducing Bacteria/mL [1, 10]: ≧6 Log 10 Bacteria/mL
Log 10 Anaerobic Sulfate Reducing Bacteria/mL [1, 11]: ≧6 Log 10 Bacteria/mL
control of SRB in frac pond water (summary in words) [1]: lost all control of SRB and AB after the 2nd challenge on day 28; also recorded: failed completely at all concentrations after challenging twice at 14 and 28 days contact time
Log 10 Anaerobic Acid Producing Bacteria/mL ([2]; 50 ppm as is, 7 Days): 0 Log 10 Bacteria/mL
Log 10 Anaerobic Acid Producing Bacteria/mL ([2]; 50 ppm as is, 14 Days): 0 Log 10 Bacteria/mL
Log 10 Anaerobic Acid Producing Bacteria/mL ([2]; 50 ppm as is, 21 Days): 1 Log 10 Bacteria/mL
Log 10 Anaerobic Acid Producing Bacteria/mL ([2]; 50 ppm as is, 28 Days): 0 Log 10 Bacteria/mL
Log 10 Anaerobic Acid Producing Bacteria/mL ([2]; 50 ppm as is, 35 Days): ≧3 Log 10 Bacteria/mL
Log 10 Anaerobic Acid Producing Bacteria/mL ([2]; 50 ppm as is, 42 Days): ≧6 Log 10 Bacteria/mL
Log 10 Anaerobic Acid Producing Bacteria/mL ([2]; 50 ppm as is, 58 Days): ≧6 Log 10 Bacteria/mL
Log 10 Anaerobic Acid Producing Bacteria/mL ([2]; 50 ppm as is, 90 Days): ≧5 Log 10 Bacteria/mL
Log 10 Anaerobic Acid Producing Bacteria/mL ([2]; 100 ppm as is, 7 Days): 0 Log 10 Bacteria/mL
Log 10 Anaerobic Acid Producing Bacteria/mL ([2]; 100 ppm as is, 14 Days): 0 Log 10 Bacteria/mL
Log 10 Anaerobic Acid Producing Bacteria/mL ([2]; 100 ppm as is, 21 Days): 0 Log 10 Bacteria/mL
Log 10 Anaerobic Acid Producing Bacteria/mL ([2]; 100 ppm as is, 28 Days): 0 Log 10 Bacteria/mL
Log 10 Anaerobic Acid Producing Bacteria/mL ([2]; 100 ppm as is, 35 Days): ≧3 Log 10 Bacteria/mL
Log 10 Anaerobic Acid Producing Bacteria/mL ([2]; 100 ppm as is, 42 Days): ≧6 Log 10 Bacteria/mL
Log 10 Anaerobic Acid Producing Bacteria/mL ([2]; 100 ppm as is, 58 Days): ≧6 Log 10 Bacteria/mL
Log 10 Anaerobic Acid Producing Bacteria/mL ([2]; 100 ppm as is, 90 Days): ≧6 Log 10 Bacteria/mL
Log 10 Anaerobic Acid Producing Bacteria/mL ([2]; 200 ppm as is, 7 Days): 0 Log 10 Bacteria/mL
Log 10 Anaerobic Acid Producing Bacteria/mL ([2]; 200 ppm as is, 14 Days): 1 Log 10 Bacteria/mL
Log 10 Anaerobic Acid Producing Bacteria/mL ([2]; 200 ppm as is, 21 Days): 0 Log 10 Bacteria/mL
Log 10 Anaerobic Acid Producing Bacteria/mL ([2]; 200 ppm as is, 28 Days): 0 Log 10 Bacteria/mL
Log 10 Anaerobic Acid Producing Bacteria/mL ([2]; 200 ppm as is, 35 Days): ≧3 Log 10 Bacteria/mL
Log 10 Anaerobic Acid Producing Bacteria/mL ([2]; 200 ppm as is, 42 Days): ≧5 Log 10 Bacteria/mL
Log 10 Anaerobic Acid Producing Bacteria/mL ([2]; 200 ppm as is, 58 Days): ≧6 Log 10 Bacteria/mL
Log 10 Anaerobic Acid Producing Bacteria/mL ([2]; 200 ppm as is, 90 Days): ≧6 Log 10 Bacteria/mL
Log 10 Anaerobic Acid Producing Bacteria/mL [2, 4]: 0 Log 10 Bacteria/mL
Log 10 Anaerobic Acid Producing Bacteria/mL [2, 5]: 0 Log 10 Bacteria/mL
Log 10 Anaerobic Acid Producing Bacteria/mL [2, 6]: 0 Log 10 Bacteria/mL
Log 10 Anaerobic Acid Producing Bacteria/mL [2, 7]: 0 Log 10 Bacteria/mL
Log 10 Anaerobic Acid Producing Bacteria/mL [2, 8]: ≧3 Log 10 Bacteria/mL
Log 10 Anaerobic Acid Producing Bacteria/mL [2, 9]: 4 Log 10 Bacteria/mL
Log 10 Anaerobic Acid Producing Bacteria/mL [2, 10]: ≧6 Log 10 Bacteria/mL
Log 10 Anaerobic Acid Producing Bacteria/mL [2, 11]: ≧6 Log 10 Bacteria/mL
control of AB in frac pond water (summary in words) [2]: lost all control of SRB and AB after the 2nd challenge on day 28
ORP after 10 minutes of residence time [3]: increases nearly to the level of the DI H2O alone
ORP response upon initial addition of biocide [3]: does not significantly impact ORP

CN1CSC(=S)N(C)C1 [Thione, 3,5-dimethyl-1,3,5-thiadiazinane-2-thione]
control of SRB in frac pond water (summary in words) [1]: much more effective at inhibiting SRB and AB growth in frac water than the Glut and THPS treatments; also recorded: exceptional control over both the short and long term for SRB through 3 substantial challenges
control of AB in frac pond water (summary in words) [2]: much more effective at inhibiting SRB and AB growth in frac water than the Glut and THPS treatments
